Measurements: the supplement of paper PMC10307832

Experiments:
Test in all cases: relative viability (nuclei count vs DMSO), 5 days (fraction); higher = more cells survive
[1] = compound: CC1=NC=CC(=C1)C2=CC=C(C=C2)CC(=O)NC3=CC=C(C=C3)C4=CN=CC=C4 [Wnt-C59] + Cc1cc(Nc2cc(N3CCN(C)CC3)nc(Sc3ccc(NC(=O)C4CC4)cc3)n2)n[nH]1 [Tozasertib] (partner 0.1 µM)
Procedure, shortened: (§1)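 Lung cancer cell lines were pin-tool dosed in 1536-well plates on the day after seeding, with either a lone drug or a fixed anchor-drug dose plus five library-drug doses (not always all listed) in √10 steps. Nuclei were counted on 4× images after 5 days. Relative viability is the ratio of treated-well to vehicle-well nuclei counts, with each value a median of duplicate plates.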

[2] = compound: CS(=O)(=O)CCNCc1ccc(-c2ccc3ncnc(Nc4ccc(OCc5cccc(F)c5)c(Cl)c4)c3c2)o1 [Lapatinib] + CCNC(=O)c1noc(-c2cc(C(C)C)c(O)cc2O)c1-c1ccc(CN2CCOCC2)cc1 [Luminespib] (partner 0.01 µM)
Procedure, shortened: as §1

[3] = compound: CS(=O)(=O)CCNCc1ccc(-c2ccc3ncnc(Nc4ccc(OCc5cccc(F)c5)c(Cl)c4)c3c2)o1 [Lapatinib] + O=C(CCCCCCC(=O)Nc1ccccc1)NO [Vorinostat] (partner 1 µM)
Procedure, shortened: as §1

[4] = compound: CC1=NC=CC(=C1)C2=CC=C(C=C2)CC(=O)NC3=CC=C(C=C3)C4=CN=CC=C4 [Wnt-C59] + Cc1nc(NC(=O)N2CCC[C@H]2C(N)=O)sc1-c1ccnc(C(C)(C)C(F)(F)F)c1 [Alpelisib] (partner 2 µM)
Procedure, shortened: as §1

Cell Line | relative viability ([1]; first compound 0.001 µM) | relative viability ([1]; first compound 0.01 µM) | relative viability ([1]; first compound 0.03162 µM) | relative viability ([1]; first compound 0.1 µM) | relative viability ([2]; first compound 0.02 µM) | relative viability ([2]; first compound 0.06325 µM) | relative viability ([2]; first compound 0.2 µM) | relative viability ([2]; first compound 0.6325 µM) | relative viability ([2]; first compound 2 µM) | relative viability ([3]; first compound 0.02 µM) | relative viability ([3]; first compound 0.06325 µM) | relative viability ([3]; first compound 0.2 µM) | relative viability ([3]; first compound 0.6325 µM) | relative viability ([3]; first compound 2 µM) | relative viability ([4]; first compound 0.001 µM) | relative viability ([4]; first compound 0.01 µM) | relative viability ([4]; first compound 0.03162 µM) | relative viability ([4]; first compound 0.1 µM)
NCI-H1651 | 0.918 | 0.537 | 0.761 | 0.744 | 0.712 | 0.672 | 0.935 | 0.695 | 0.712 | 0.615 | 0.517 | 0.477 | 0.543 | 0.521 | 1.04 | 0.956 | 0.934 | 0.815
NCI-H1703 |  |  |  |  |  |  |  |  |  |  |  |  |  |  | 0.33 | 0.328 | 0.352 | 0.283
NCI-H522 | 0.63 | 0.566 | 0.578 | 0.651 |  | 1.09 |  | 1.03 | 0.794 |  | 0.822 | 1 | 0.839 | 0.902 |  |  |  | 
HCC-366 | 0.156 | 0.102 | 0.111 | 0.124 |  |  |  |  |  |  | 0.275 | 0.391 | 0.352 | 0.202 | 0.453 | 0.287 | 0.412 | 0.297
SK-LU-1 | 0.317 | 0.323 | 0.331 | 0.295 | 0.176 | 0.223 | 0.238 | 0.175 | 0.2 | 0.681 | 0.747 | 0.829 | 0.776 | 0.802 | 0.996 | 0.992 | 1.08 | 1.05
NCI-H520 | 0.434 | 0.54 | 0.496 | 0.43 | 0.21 | 0.226 | 0.26 | 0.242 | 0.233 | 0.7 | 0.684 | 0.707 | 0.671 | 0.76 | 0.932 | 0.969 | 1.06 | 0.785
NCI-H1437 | 0.426 | 0.428 | 0.417 | 0.384 | 0.961 | 1.21 | 1.16 | 1.13 | 1.02 | 0.782 | 0.861 | 0.825 | 0.793 | 0.527 | 1.07 | 0.917 | 1.09 | 0.946
NCI-H460 | 0.465 | 0.0488 | 0.555 | 0.48 | 0.0268 | 0.035 | 0.0347 | 0.0312 | 0.026 | 0.671 | 0.67 | 0.815 | 0.715 | 0.533 | 0.45 | 0.46 | 0.472 | 0.413
LK-2 | 0.165 | 0.173 | 0.189 | 0.18 |  |  | 0.174 | 0.211 | 0.177 | 0.173 |  | 0.222 | 0.325 | 0.357 | 1.29 | 1.06 | 1.03 | 0.68
NCI-H358 | 0.108 | 0.0976 | 0.108 | 0.0887 |  | 0.159 |  | 0.255 | 0.173 | 0.596 | 0.418 | 0.511 | 0.362 | 0.215 | 0.917 | 0.825 | 0.901 | 0.905
NCI-H2085 | 0.807 | 0.795 | 0.831 | 0.824 |  | 0.402 | 0.396 | 0.447 | 0.322 | 0.666 | 0.716 | 0.795 | 0.741 | 0.587 | 0.998 | 0.97 | 0.888 | 0.904
